# Laboratory results published in patent US7462605B2, “Phosphoramidate compounds and methods of use” (Celmed Oncology (USA), Inc., priority 2002, dated 2008).
# “Also recorded” adds a separate entry of the source.
# Key:
# TSL/HT1080 cells = assay: alamarBlue cytotoxicity, HT1080 expressing low GFP-TS; assay type: cell-based, human; conditions: TSL/HT1080, TS Level 409%
# Protocol: Cell lines and transfection. HT1080 cells were grown in PRM11640 medium supplemented with 10% fetal calf serum, and transfected with GFP-TS expression vector. 48 hours after, transfection cells were tripsinized and replated in culture medium containing 750 μg/ml G418. After selection with G418 for two weeks, surviving cells were sorted based upon fluorescence expression. One clone with higher fluorescence expression (named as TSH/HT1080) and one clone with lower fluorescence expression (named as TSL/HT1080) were selected and expanded into cells lines. The stable HT1080 cells transfected with pEGFP-C3 were used as control.
# Construction of GFP-TS expression vector. […] The cDNA was cloned into HindIII and KpnI sites of mammalian expression vector pEGFP-C3 (Clontech Laboratories. Inc., Palo Alto, Calif.), in-frame with GFP sequence. The cDNA insert was confirmed by DNA sequencing.
# Growth Inhibition Studies. Cells growing exponentially were transferred to 384-well flat bottom tissue culture plates. All cell types were plated at a density of 500 cells per well in 25 μL of complete medium (RPMI 1640+10% fetal bovine serum+antibiotics/antimycotics). […] After 4 hours incubation at 37° C., fluorescence was monitored at 535 nm excitation and 595 nm emission.
# (§1) Concentration vs. relative fluorescence units (RFU) were plotted, and sigmoid curves were fit using the Hill equation.
# [1] = system: SKCO1 (Colon) tumor cells; assay: alamarBlue growth inhibition, SKCO1; assay type: cell-based, human; conditions: 120 hours
# Protocol: (§2) Growth Inhibition Studies. Cells growing exponentially were transferred to 384-well flat bottom tissue culture plates. All cell types were plated at a density of 500 cells per well in 25 μL of complete medium (RPMI 1640+10% fetal bovine serum+antibiotics/antimycotics). After 24 hours (day 0), 25 μL of complete medium containing the experimental compounds over the dose range of 10^ñ3 to 10^ñ10 M were added in triplicate. […] 5 μL of the redox indicator, alamarBlue, was added to each well (10% v/v). After 4 hours incubation at 37° C., fluorescence was monitored at 535 nm excitation and 595 nm emission.
# as §1
# [2] = system: MDAMB468 (Breast) tumor cells; assay: alamarBlue growth inhibition, MDAMB468; assay type: cell-based, human; conditions: 120 hours
# Protocol: as §2, §1
# TS in intact RKO cells = target: T1, TS in intact RKO cells (Homo sapiens, UniProt P04818); assay: TS activity in intact cells by tritium release; assay type: cell-based; conditions: release of [^3H]2O from 5-[^3H]deoxyuridine
# T1 construct: endogenous in cells; host or cells: RKO cells
# T1 sequence (P04818 2-313 limits assumed): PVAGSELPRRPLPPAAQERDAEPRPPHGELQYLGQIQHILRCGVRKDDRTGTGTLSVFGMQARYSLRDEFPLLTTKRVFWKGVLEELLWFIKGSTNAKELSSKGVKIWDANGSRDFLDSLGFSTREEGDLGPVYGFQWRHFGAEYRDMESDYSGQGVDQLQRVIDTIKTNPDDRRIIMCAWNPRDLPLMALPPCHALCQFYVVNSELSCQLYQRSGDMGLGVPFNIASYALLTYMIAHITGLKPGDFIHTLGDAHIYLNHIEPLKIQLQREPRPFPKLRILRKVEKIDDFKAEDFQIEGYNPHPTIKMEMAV
# Protocol: TS activity was measured in intact RKO cells by release of [^3H]2O from 5-[^3H]deoxyuridine as described in Materials and Methods. NB1011 was washed out of cells by replacing with fresh media, incubating for 60 minutes at 37 ° C., then repeating this procedure. Control and untreated cells were subjected to the same washing procedure.
# TS Activity Assay by Tritium Release from dUMP-^3H. Cells were plated in 24 well plates to a density of 30,000 cells/plate and incubated for 16 hours to allow adhesion to the plastic surface of the plate.
# Immediately prior to the thymidylate synthase assay, the media was replaced with RPMI+10% dialyzed fetal calf serum. 0.5 μCi of 5-[^3H]deoxyuridine was added to each well, and plates were incubated for 60 minutes at 37° C. without additional CO2. [^3H] release was measured by adsorbing 5-[^3H]deoxyuridine to activated charcoal (10% in 1×PBS) for 5 minutes at room temperature. After centrifugation for 5 minutes at 13,000 RPM, the amount of [^3H] in the supernatant was determined by liquid scintillation counting.
# The results described above indicate that BVdUMP, generated intracellularly from NB1011, is unlikely to inactivate TS during its transformation to product(s). […] In these experiments exogenous 5-(3H) deoxyuridine is added to cell culture medium and the release of tritiated water is monitored (Carreras, C. W. and Santi, D. V. (1995) and Roberts (1966)). […]
# H527 (Skin) normal cells = assay: alamarBlue growth inhibition, H527; assay type: cell-based, human; conditions: 120 hours
# Protocol: as §2, §1
# SKLU1 (Lung) tumor cells = assay: alamarBlue growth inhibition, SKLU1; assay type: cell-based, human; conditions: 120 hours
# Protocol: as §2, §1
# [3] = system: MCIxc (Brain) tumor cells; assay: alamarBlue growth inhibition, MCIxc; assay type: cell-based, human; conditions: 120 hours
# Protocol: as §2, §1
# [4] = system: collagen induced arthritis; assay: Collagen induced arthritis in DBA/1 mice; assay type: in vivo, mouse; conditions: vs saline-treated control; NB1011 2.5 mg per day intraperitoneal
# Protocol: Arthritis was induced in male DBA/1 mice (8-10 weeks old) by intradermal injection of bovine type II collagen, purified in-house at the Kennedy Institute of Rheumatology as previously described (Miller, E. J. et al. (1972)). Collagen was administered in complete Freund's adjuvant (Difco, Detroit, Mich.). Onset of arthritis is expected to be variable. Arthritis onset is considered to occur on the day that swelling and/or erythema were observed. Clinical score is a composite of disease severity and the number of limbs affected, and is monitored daily from onset of disease and used as an assessment of disease progress. An example for scoring is: 0, Normal; 1, slight swelling with erythema; 2, pronounced swelling; 3, joint rigidity. In addition, the extent of paw swelling reflects the degree of edema in affected limbs.
# NB1011 was administered daily by intraperitoneal administration at 2.5 mg total dose per day.
# Following immunization with collagen, mice were maintained until a significant clinical score for disease progression was achieved (between 2.5 and 3.5). Mice were then treated with control saline injections, NB1011, or with anti-TNF antibody as a positive control. […] Paw swelling is an alternative measure of CIA disease severity.
# [5] = system: COLO205 (Colon) tumor cells; assay: alamarBlue growth inhibition, COLO205; assay type: cell-based, human; conditions: 120 hours
# Protocol: as §2, §1
# [6] = system: HEPG2 (Liver) tumor cells; assay: alamarBlue growth inhibition, HEPG2; assay type: cell-based, human; conditions: 120 hours
# Protocol: as §2, §1
# [7] = system: NHOST (Bone) normal cells; assay: alamarBlue growth inhibition, NHOST; assay type: cell-based, human; conditions: 120 hours
# Protocol: as §2, §1
# HCTC (Colon) tumor cells = assay: alamarBlue growth inhibition, HCTC; assay type: cell-based, human; conditions: 120 hours
# Protocol: as §2, §1
# W138 (Lung) normal cells = assay: alamarBlue growth inhibition, W138; assay type: cell-based, human; conditions: 120 hours
# Protocol: as §2, §1
substance,measurement,setting,value
5-(2-Bromovinyl)-2′-deoxyuridine phenyl N-methoxy-L-alaninyl phosphoramidate [NB1011],IC50,TSL/HT1080 cells,196 µM
same,IC50,[1],184 µM
same,IC50,[2],172 µM
same,effect on TS activity in intact cells after wash-out,TS in intact RKO cells,completely reversible; also recorded: does not irreversibly inactivate the TS enzyme
same,IC50,H527 (Skin) normal cells,273 µM
same,IC50,SKLU1 (Lung) tumor cells,270 µM
same,IC50,[3],61 µM
same,clinical score (disease suppression),[4],significant disease suppression
same,paw swelling (disease suppression),[4],significant disease suppression
same,IC50,[5],105 µM
same,IC50,[6],704 µM
same,IC50,[7],642 µM
same,IC50,HCTC (Colon) tumor cells,280 µM
same,IC50,W138 (Lung) normal cells,335 µM
